Reference: paper PMC12615518, “Discovery of CRBN-recruiting PROTAC degraders of the METTL3-METTL14 complex” (Medicinal Chemistry Research, 2025)

Key:
METTL14 = target: T1, METTL14 (Homo sapiens, UniProt Q9HCE5); assay: Immunoblotting (Western blot) degradation of METTL14 in MV4-11 cells; assay type: cell-based
T1 construct: Following treatment, total cellular proteins were extracted using RIPA buffer; endogenous in cells; host or cells: MV4-11 (MV4.11) human AML cells, ATCC
Protocol: All cell lines were maintained under standard conditions in a humidified atmosphere at 37 °C with 5% CO₂.
Western Blot Analysis: Following treatment, total cellular proteins were extracted using RIPA buffer (Auragene, Changsha, China). […] After washing, membranes were incubated with horseradish peroxidase (HRP)-conjugated secondary antibodies (anti-rabbit or anti-mouse IgG; 1:5000) for 2 hours at room temperature. Protein bands were visualized using an enhanced chemiluminescence (ECL) detection kit (Amersham Pharmacia), following the manufacturer's protocol. Band intensities were quantified using ImageJ software and normalized to ACTIN as a loading control. Data was analyzed using GraphPad Prism 9.

[1] = Metabolic stability in human liver microsomes; assay type: in vitro ADME; details: NADPH, 37 °C
Protocol: To evaluate the potential for advancing this compound to in vivo studies, the in vitro metabolic stability of this compound was determined in human liver microsomes. […] The flexible linker could then be one potential reason for overall metabolic instability. With this knowledge in hand, further optimization of the lead compound would be necessary before beginning in vivo studies. One potential approach is to introduce more rigid linker systems, thereby reducing molecular flexibility to enhance the metabolic stability while continuing to improve potency.
Materials for Microsomal Stability: Reagent-grade KH2PO4, K2HPO4, acetonitrile, methanol, and formic acid (LC-MS grade) were purchased from Fisher Scientific. Phenacetin (≥98% purity) and verapamil (≥98% purity) were obtained from Sigma-Aldrich. Reduced nicotinamide adenine dinucleotide phosphate (NADPH) and human liver microsomes (Lot No # 1210270) were obtained from MP Biomedicals and BioIVT, respectively. Ultrapure water was used for analysis.
Metabolic Stability: Metabolic stability was assessed using male human liver microsomes. ZW30441 was incubated at a concentration of 1 µM with 1 mg/mL of microsomal protein in 50 mM phosphate buffer (pH 7.4). […] Following protein precipitation, the samples were filtered using a Solvinert 96-well plate, centrifuged at 2000 rpm, and analyzed by LC–MS/MS. […]

METTL3-METTL14 complex = target: T2, METTL3-METTL14 complex (Homo sapiens, UniProt Q86U44); assay: Washout experiment in MV4-11 cells, Western blot; assay type: cell-based; details: 1 µM for 20 h, then drug withdrawal 0 to 24 h
T2 construct: endogenous in cells; host or cells: MV4-11 human AML cells, ATCC
Protocol: To further characterize this compound, MV4-11 AML cells were treated with ZW30441 across a range of concentrations for 24 h.
Fig. 3 ZW30441 induced degradation of METTL3 and METTL14 in a dose- and time-dependent manner. […] METTL3 and METTL14 protein levels were normalized against ACTIN and plotted for DC50 and Dmax determination (right). B The levels of METTL3 and METTL14 protein in MV4-11 cells were analyzed by Western blots after the treatment of 1 µM of ZW30441 for various durations. C METTL3 and METTL14 protein levels were analyzed by Western blots in MV4-11 cells after treatment with 1 µM of ZW30441 for 20 h followed by drug withdrawal and cultured without ZW30441 for 0 to 24 h, as indicated TEXT PRINTED IN THE PICTURE: (A) ZW30441: METTL3 levels: DC50=0.44 uM; METTL3 levels: Dmax= 68.7%; METTL14 levels: DC50=0.13 uM; METTL14 levels: Dmax= 74.1% DOUBTS OF THE COPYIST ABOUT THIS PICTURE: ZW30441, panel A, axis title of the right plot: last letter unclear, 'METTL14 levels' or 'METTL14 levela'
Western Blot Analysis: Following treatment, total cellular proteins were extracted using RIPA buffer (Auragene, Changsha, China). Equal amounts of protein were separated by 12% SDS-PAGE and transferred onto PVDF membranes (Thermo Fisher, USA, LC2002). […] Band intensities were quantified using ImageJ software and normalized to ACTIN as a loading control. Data was analyzed using GraphPad Prism 9. […]

T1 sequence (Q9HCE5 whole entry): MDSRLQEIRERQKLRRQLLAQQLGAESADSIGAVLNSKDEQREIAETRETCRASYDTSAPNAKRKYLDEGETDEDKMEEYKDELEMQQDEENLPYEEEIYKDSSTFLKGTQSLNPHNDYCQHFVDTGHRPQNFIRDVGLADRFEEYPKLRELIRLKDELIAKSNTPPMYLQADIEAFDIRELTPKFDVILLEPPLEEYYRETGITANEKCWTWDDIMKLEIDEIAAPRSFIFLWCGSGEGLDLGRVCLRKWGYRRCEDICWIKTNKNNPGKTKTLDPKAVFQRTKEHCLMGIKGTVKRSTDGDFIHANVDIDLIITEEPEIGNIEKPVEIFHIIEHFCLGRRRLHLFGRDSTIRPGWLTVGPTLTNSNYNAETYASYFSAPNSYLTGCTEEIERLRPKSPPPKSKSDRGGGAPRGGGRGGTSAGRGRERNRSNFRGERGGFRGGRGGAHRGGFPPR
T1 sequence (Q86U44 2-580 partner): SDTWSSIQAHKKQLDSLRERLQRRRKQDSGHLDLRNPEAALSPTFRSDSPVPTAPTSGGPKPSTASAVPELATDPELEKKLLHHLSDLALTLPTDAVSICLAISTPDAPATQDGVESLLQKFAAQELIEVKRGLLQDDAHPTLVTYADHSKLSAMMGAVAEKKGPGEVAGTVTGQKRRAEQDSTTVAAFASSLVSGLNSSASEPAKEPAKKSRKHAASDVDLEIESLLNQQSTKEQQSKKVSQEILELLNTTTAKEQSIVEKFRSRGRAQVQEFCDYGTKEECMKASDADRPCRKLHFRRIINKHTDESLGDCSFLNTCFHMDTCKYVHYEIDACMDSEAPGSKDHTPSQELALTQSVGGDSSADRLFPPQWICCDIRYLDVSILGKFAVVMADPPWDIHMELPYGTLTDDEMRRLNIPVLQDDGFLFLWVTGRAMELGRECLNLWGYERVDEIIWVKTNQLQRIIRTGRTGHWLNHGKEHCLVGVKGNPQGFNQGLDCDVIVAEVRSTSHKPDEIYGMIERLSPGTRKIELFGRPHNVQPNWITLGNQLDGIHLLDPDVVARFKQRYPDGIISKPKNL
T2 sequence (Q86U44 2-580 limits assumed): as the sequence (Q86U44 2-580 partner) above
T2 sequence (Q9HCE5 whole entry partner): as the sequence (Q9HCE5 whole entry) above

CC1(C)CCN(Cc2cc(F)c(N3CC(=O)NC4(CCN(c5cc(NCCCCCCCCCC(=O)N6CCN(c7ccc8c(c7)CN(C7CCC(=O)NC7=O)C8=O)CC6)ncn5)CC4)C3)cc2F)CC1 (centres unmarked) [Compound 4j, 3-(5-(4-(10-((6-(4-(4-((4,4-dimethylpiperidin-1-yl)methyl)-2,5-difluorophenyl)-2-oxo-1,4,9-triazaspiro[5.5]undecan-9-yl)pyrimidin-4-yl)amino)decanoyl)piperazin-1-yl)-1-oxoisoindolin-2-yl)piperidine-2,6-dione]
Dmax (METTL14; MV4-11, MV4-11 cells, 24 h): 65% | % reduction in MV4-11 cells, 0.3 µM, METTL14 (METTL14; MV4-11 cells, 0.3 µM, 24 h, immunoblotting, nd = no degradation): 56% | % reduction in MV4-11 cells, 1.0 µM, METTL14 (METTL14; MV4-11 cells, 1.0 µM, 24 h, immunoblotting, nd = no degradation): 77% | DC50 (METTL14; MV4-11 cells, 24 h, Western blot normalized against ACTIN): 130 nM | time of maximum degradation of METTL14 (METTL14; MV4-11 cells, time course at 1 µM): 20 h | intrinsic clearance (Clint) in human liver microsomes ([1]; 1 µM, 1 mg/mL microsomal protein): 152.1 ± 26.1 uL/min/mg of protein | half-life at 1 µM ([1]; male, human, liver microsomes, pH 7.4, 1 mg/mL microsomal protein, read-out: half-life (T1/2) in human liver microsomes): 4.6 ± 0.7 min | duration of degradation after removal of compound (washout) (METTL3-METTL14 complex): around 24 h
